Among the data in a melting point compilation (Tetko et al.; mined from patent text by program, amines drawn as free bases though some values may be those of a salt) are melting point values, retold here.

A value given as a limit tells only on which side of the number the result lay.

The melting point is the temperature of the solid-liquid transition. The compound `CN(C)[C@@H]1c2ccccc2N(C(=O)c2ccc(NC(=O)c3ccccc3Cl)cc2)CC[C@H]1O` (relative stereo) showed a melting point of 180 to 182 °C.
The value for `O=C(c1cc(-c2ccccc2)c2sccc2c1)N1CCCCC1` was 112 °C.
The value for `CCON=C(C)c1cccc(Oc2nc(OC)cc(OC)n2)c1C(=O)OC` was 93 to 95 °C; that for `CC(CS(=O)(=O)c1ccc(-c2ccc(C(F)(F)F)cc2)cc1)N(O)C=O` (centres undefined) was 175 °C; that for `COc1ccc([C@H](CC(=O)O)n2ccn(CCCc3ccc4c(n3)NCCC4)c2=O)cn1` was 123 °C.
The value for `COc1cc(O)ccc1C=CC(=O)c1ccc(O)cc1` was 210 to 212 °C; that for `Cc1oc(-c2ccccc2)nc1C(N)=O` was 154 to 157 °C; that for `COc1ccccc1NC(=O)c1ccc(C#N)cc1` was 158 to 160 °C.
`CC(C)(C)OC(=O)NCCCCNC(=O)COc1cccc(C(F)(F)F)c1` yielded a melting point of 86 °C.
The value for `COCN1C(=O)C(NC(=O)Nc2cccc(C(=O)NS(C)(=O)=O)c2)CN(c2ccccc2)c2ccccc21` (centres undefined) was 199 to 205 °C.
The value for `CC(=O)N1CCN(CCNc2ncc3ncnc(Nc4ccc(F)c(Cl)c4)c3n2)CC1` was 196 to 198 °C; that for `NC(=O)C1Cc2c([nH]c3ccccc23)C(c2ccccc2)N1C(=O)CCl` (centres undefined) was 180 to 182 °C.
In turn, `O=C(O)c1cc2ccoc2nc1C(=O)O` displayed a melting point of 189 to 192 °C.
The result for `CCc1[nH]n(C2CCCC2)c2nc(Cc3ccc(OC)cc3)nc(=O)c1-2` reads 172 to 173 °C.
For the compound `CCN(CC)C(=O)n1cc(F)c(S(=O)(=O)c2c(Cl)cc(Cl)cc2Cl)n1`, the melting point was 89 to 90 °C.
Consider `Cc1cc(C2=NNC(=O)SC2C)cc2c1NC(=O)C2(C)C` (centres undefined), for which the melting point stood at 260 °C.
The value for `Cc1ccc(C(C)Oc2cnn(C(C)(C)C)c(=O)c2Cl)cc1` (centres undefined) was 104 to 106 °C; that for `CCOP(=O)(OCC)c1cccc(C)c1I` was 56 to 58 °C.
For `O=C1N(Cc2ccccn2)c2ccccc2C12COc1ccc3nonc3c12` (centres undefined), the melting point lay in the range of 180 to 182 °C.
`CCCC1(S(=O)(=O)CCCN2CCC(N3Cc4ccccc4C3=O)CC2)c2ccccc2-c2ccccc21` displayed a melting point of 83 to 86 °C.
Consider `CC(=O)C(Cl)=NNc1ccc(Cl)cc1`, for which the melting point lay in the range of 168 to 171 °C.
As for `Cc1ccccc1OCC(O)CN1CCC2(CC1)CSC1=C(O2)c2ccccc2C(=O)C1=O` (centres undefined), the melting point was 191 to 193 °C.
The value for `COc1cccc2[nH]cc(C3CN4CCC3CC4)c12` (centres undefined) was 193 to 195 °C; that for `Cc1nc(-c2cc(Cc3ccccc3)no2)sc1C(=O)NCc1ccccc1` was 103 to 104 °C; that for `CN(C)C(=O)C(CCN1CCC(Nc2nc3cncnc3n2Cc2ccccn2)CC1)(c1ccccc1)c1ccccc1` was 192 °C.
For the compound `CC(Oc1ccc(Oc2ccc(C(F)(F)F)cc2Cl)cc1)C(=O)N1CCCO1` (centres undefined), the melting point lay within 66.5 to 67.5 °C.
`CCOCc1nc2c(N)nc(C)cc2n1CCCCN` showed a melting point of 108 to 111 °C.
The result for `CCOC(=O)C(C)Oc1ccc(N(C)c2nc(Cl)c3cc(Cl)ccc3n2)cc1` (centres undefined) reads more than 250 °C; that for `O=C(O)c1ccc(C=CC(=O)c2ccc(O)cc2)cc1`, 300 to 302 °C; that for `O=C1N(CC2COCCO2)c2ccccc2C12COc1cc3c(cc12)OCO3` (centres undefined), 147 to 149 °C.
The result for `N#Cc1c(CF)nn(-c2c(Cl)cc(C(F)(F)F)cc2Cl)c1N` reads 139 to 141 °C; that for `Fc1ccc(-c2nn3cccnc3c2-c2ccncc2)cc1`, 194 °C.
With `O=S(=O)(Nc1ccc2c(OCc3ccc(-c4ccc(F)cc4)cc3F)cccc2c1)C(F)(F)F`, the melting point lay within 134 to 136 °C.
The value for `CC1(c2ccccc2)OC(=S)Nc2ccc(-c3cccc(Cl)c3)cc21` (centres undefined) was 202 to 203 °C.
The result for `CCOCc1nc2c(N)nc3cc(-c4cccnc4)ccc3c2n1CCNS(C)(=O)=O` reads 233 to 235 °C; that for `O=C(O)CCCC=CCCc1ccc(OCc2ccccc2)cc1`, 63 to 65 °C; that for `COC(=O)C(C#N)=CC1=C(N2CCCC2)CCCC1`, 133 to 134 °C.
The value for `Cc1nc2c(N)nc3cc(OCCC4CCN(C(=O)NC5CCCCC5)CC4)ccc3c2n1CC(C)C` was 214 to 216 °C; that for `Fc1cc(N=C2NCCN2)c(F)c(F)c1F` was 141 to 143 °C; that for `CCc1nc2c(N)nc3cc(-c4ccc(F)nc4)cnc3c2n1CC(C)(C)O` was 250 to 251 °C.
In the case of `CNC(=S)C1(c2cccc(C)n2)CCCCS1=O` (centres undefined), the melting point is 234 °C.
Compound `CCOC(=O)CCc1cccc(OCc2ccc(OCc3nc(-c4ccccc4)oc3C)cc2)c1` returned a melting point of 90 to 91 °C.
The compound `O=S(=O)(c1ccccc1)c1ncc(F)cn1` gave a melting point of 105 °C.
`Cc1cc(Cl)nn2c(-c3ccnc4c3ccn4S(=O)(=O)c3ccccc3)c(-c3ccc(F)cc3)nc12` had a melting point of 226 to 228 °C.
The result for `CN1C(=O)C(c2ccc(OCCF)cc2)(c2ccc(F)c(-c3cccnc3F)c2)N=C1N` (centres undefined) reads 135 °C; that for `OC1Cc2c(I)cccc2CC1N1CCC(c2ccccc2)CC1` (centres undefined), 194 °C; that for `CCCCc1oc2ccc(C(N)=O)cc2c1C(=O)c1ccc(OCCCN(CCCC)CCCC)cc1`, 90 to 92 °C.
`NCc1cc(=O)[nH]c(=O)[nH]1` yielded a melting point of 295 to 297 °C.
The value for `Nc1cccc(-c2ccc(CCN3CCN(C(=O)c4ccco4)CC3)cc2)n1` was 152 to 154 °C.
The result for `Cc1c(SCCCn2c([N+](=O)[O-])cnc2C)ccnc1CSc1ncccn1` reads 141 to 143 °C.
The value for `COc1cc(C(=O)C=Cc2ccccc2)ccc1O` was 61 to 64 °C.
As for `CNC(=O)N1CCC(C(c2ccc(F)cc2)N(CCc2ccccc2)C(=O)NC)CC1` (centres undefined), the melting point lay within 186 to 188 °C.
On to `CNc1c(F)cc2c(=O)c(C(=O)O)cn(-c3nc(NCCO)c(F)cc3F)c2c1Cl`, for which the melting point lay in the range of 201 to 205 °C.
The value for `COCN1C(C)=C(C(=O)OC)C(c2ccccc2)C(C(=O)OCOC(=O)C(C)(C)C)=C1C` (single isomer, unassigned; (+)) was 80 to 81 °C; that for `CC1=C(N)C(C)C2CC(C)(CN3CCN(c4ccc(-n5ccnc5)cc4)CC3)OC2=C1C` (centres undefined) was 165 to 167 °C.
The result for `COCCn1nc(-c2ccc(C(C)(C)C)cc2)cc1C(=O)NCc1ccc(OC(C)(C)C(=O)O)c(C)c1` reads 112 °C.
The result for `CCc1ccc2c(c1)cc(C(=O)O)n2CC(=O)OC` reads 181 °C; that for `N=C(N)Nc1ccc(CCC(=O)O)cc1`, more than 300 °C; that for `CC1(C)CC(=O)CCc2ccc(Br)cc21`, 67 to 68 °C.
As to `COc1ccc(OCc2ccc3ccccc3n2)cc1`, the melting point lay within 79 to 80 °C.
The value for `O=C(c1ccc([N+](=O)[O-])cc1)N1CCC[C@@H]2CCCC[C@H]21` (relative stereo) was 84 to 87 °C; that for `CC(C)(C)OC(=O)NC1CCCCCC=CC2CC2(C(=O)NS(=O)(=O)C2CC2)NC(=O)C2CC(OC(=O)c3ccc(CC(=O)O)cc3)CN2C1=O` (centres undefined) was 154 to 156 °C; that for `O=C(O)CCSSc1ccccc1` was 58 °C.
The result for `CC(=NOCC(=O)O)c1ccc(Cl)c(Cl)c1` reads 128 to 129 °C; that for `COc1ccc(-n2nc(C)cc2NC2=NCCN2C(C)=O)cc1`, 129 to 131 °C.
Turning to `Cc1c(C(=O)O)cccc1-n1c(C)ccc1C`, the melting point was 142 to 143 °C.
Turning to `CCSC(=S)SC1NC(=O)C1C(C)C` (centres undefined), the melting point fell in the range of 65 to 66 °C.
In turn, `CCOC(=O)C1CCc2[nH]c3ccc(OC(F)(F)F)cc3c2C1` (centres undefined) returned a melting point of 131 to 132 °C.
Regarding `Cc1cc(NC(=O)C(C)(O)COc2ccc(CC#N)cc2)ccc1[N+](=O)[O-]` (centres undefined), the melting point fell in the range of 143 to 145 °C.
With `O=C(O)CCCCCc1nc2c(F)c(F)cc(F)c2s1`, the melting point is 84 to 86 °C.
The result for `CCC1=C(C#N)C(c2cccc(C#N)c2Br)c2c[nH]nc2N1` (centres undefined) reads more than 300 °C; that for `CC(=O)SC1C2=C(CCCC2)C(=O)N1c1ccc(Br)cc1F` (centres undefined), 117 to 118 °C; that for `CC1Cc2cc3c(cc2C(c2ccc([N+](=O)[O-])cc2)=NN1C(N)=S)OCO3` (centres undefined), 213 to 215 °C.
`CN(c1cccc2cc(C(N)=O)[nH]c12)S(=O)(=O)c1nccs1` registered a melting point of 220 to 221 °C.
The value for `Nc1cccc(-c2ccc(CCN3CCC4(CC3)NC(=O)N(Cc3ccccc3)C4=O)cc2)n1` was 190 °C.
The compound `CSCN1C(=O)c2cccnc2N(CSC)c2cc(Cl)ccc21` gave a melting point of 181 to 182 °C.
For `COc1ccc(C(=O)Nc2ccc(F)c(F)c2)cc1NCc1ccc(C(=O)O)cc1`, the melting point was more than 240 °C.
In the case of `O=C(O)c1ccc2c(=O)n(Cc3ccc(Cl)cc3Cl)cnc2c1`, the melting point was 244 to 246 °C.
The value for `CC(C)(C)OC(=O)N1CCC(c2c[nH]cn2)CC1` was 198 °C.
The result for `NC(=O)C(=O)NC(C(=O)O)c1ccccc1` (centres undefined) reads 193 °C; that for `COCc1ccc(-c2ncccc2C#N)cc1`, 74 °C.
On to `COC1(NC(=O)OCc2ccccc2)CNC1=O` (centres undefined), for which the melting point is 112 to 114 °C.
Compound `CNCCCCOc1ccc2c(ccn2-c2ccc(F)cc2)c1` registered a melting point of 49 to 50 °C.
The result for `CCN(CC)CCOC(=O)c1cc2cc(Br)ccc2nn1` reads 90 to 93 °C; that for `CC(Br)c1nc2ccccc2c(=O)n1-c1ccc(F)cc1` (centres undefined), 180 °C.
The value for `Cc1oc2c(Br)cc(C(CCOS(C)(=O)=O)CCOS(C)(=O)=O)cc2c1C` was 154 to 156 °C.
In turn, `CS(=O)CC(=O)c1ccccc1N` (centres undefined) showed a melting point of 99 to 100 °C.
In the case of `CC(=O)OC1CSC(Oc2cccc(-c3cccc(Cl)n3)c2)C(OC(C)=O)C1OC(C)=O` (centres undefined), the melting point fell in the range of 186 to 189 °C.
The result for `Cc1cc(C2=NOC(c3cc(Cl)cc(Cl)c3)(C(F)(F)F)C2)ccc1C(=O)NC1CCCO1` (centres undefined) reads 144 to 147 °C.
